Source: publication PMC7765409 (International Journal of Molecular Sciences, 2020)

Tests used:
[1] = system: lipid droplet accumulation in TG/FA-treated hiPSC-Hep; assay: hiPSC-Hep ER-stress (TG/FA) induced lipid droplet accumulation high-content assay, integrated spot signal (BODIPY 493/503); format: cell-based, human; conditions: Homo sapiens; for IC50: 10-point dose-response, pre-treatment then TG/FA 18 h, read-out: IC50, inhibition of lipid accumulation (integrated spot signal); for EC50: Figure S5 dose-response, read-out: EC50, inhibition of lipid droplet accumulation (black line: ISS)
Protocol: Cryopreserved hiPSC-derived hepatocytes (iCell Hepatocytes 2.0; Cellular Dynamics International Madison, WI) plated at a density of 36 K/well in 384-well on collagen I coated Corning Biocoat 384-well plates (BD Biosciences, 101306), were cultured to promote hepatic differentiation and maturation into hepatic-like cells as previously described. Hepatocytes were plated according to the manufacturer’s protocol in a volume of 50 µL/well using BioTek^TM Microflo^TM select dispenser (#7170011, BioTek Instruments) for high-throughput and high-content analysis assay (HT/HCA) drug discovery. After plating cells were cultured according to vendor specifications in a cell culture incubator at 37 °C, 5% CO2 for 3–4 h. Then, 40 µL spent medium was aspirated using multi-channel automated pipette handling system (Integra ViaFlo 96/384) and replaced with 40 µL (80% exchange) of fresh plating medium. Approximately 24 h post-plating 80% of medium was replaced every day thereafter. At day 5 of differentiation, 40 µL/well spent medium was replaced with maintenance medium (MM) consisting of William’s E medium (Thermo Fisher Scientific) supplemented with 0.1 µM dexamethasone and hepatocyte maintenance supplement pack (Thermo Fisher Scientific) for an additional 2–3 days before HCA. The overview of automated HT system for hiPSC-derived hepatocytes differentiation, staining and image analysis for phenotypic screening is depicted in Figure S2. Primary screening hit confirmation and dose response studies were performed on different batches of hiPSC-derived hepatocytes.
(§1) To induce hepatic triglycerides (TAG) accumulation, before staining, cells were treated with 20 μL of 2× FA mixture, consisting of different proportions of oleic acid (OA-BSA, 25 µM, Sigma, #O3008), palmitic acid (PA-BSA, 200 µM, Agilent Technologies, #102720100) and thapsigargin (TG, 1 µM, Abcam, #120286) with a total volume of 40 μL/well. The TG/FA mixture was dispensed with BioTek^TM Microflo^TM select dispenser (#7170011, BioTek Instruments) and incubated for 18 h. Next, to label TAG accumulation stored into cytoplasmic lipid droplets, upon treatment, living cells were washed two times with warm Dulbecco’s Phosphate-Buffered Saline 1X (PBS, Corning, #21-031CV) with a handheld 384-channel electronic pipette device and then incubated for 15 min with a lipophilic dye, BODIPY 493/503 (8 ug/mL Life technologies, #D3922-green), in PBS at 37 °C. BODIPY (493/503) has become the standard dye utilized by scientists to study lipid droplets in live cells. After three washes with PBS cells were fixed with 4% paraformaldehyde methanol-free (PFA, Electron Microscopy Science, #15710) in PBS for 15 min at room temperature (RT). Cell health was monitored by Hoechst 33342 (10 ug/mL, Molecular Probe, #H21492) staining in PBS for nuclear count. After TAG staining the 384-assay plates were loaded in an automated confocal microscope with Opera High Content Imaging System (PerkinElmer, Waltham, MA, USA). Dyes were excited and images were captured on the Hoechst 3342 and Alexa Fluor 488 channels and signals were collected with a long pass filter 410 and 505 nm, for nuclei and TAG, respectively, at objective 20× air objective for HCA. To capture enough cells (>600) for the analysis, eight fields per well were imaged. Hoechst 33342 fluorescence was used to identify the nuclear region and cell counts. To assess intracellular fat deposits, BODIPY 493/503 fluorescence intensity was measured inside the cytoplasm region.
For the HCA screen, compounds tested for their inhibitory effects, were used as single dose at a 10 μM final concentration of compound in DMSO in each well (0.1% DMSO) in 20 μL of maintenance medium. Prior to compound addition, 30 µL/well of medium was removed from hiPSC-Hep cells screening plates with ViaFlo ([…]). Pre-spotted 80 nL of 10 mM compound were diluted to 20 μM (0.2% DMSO) in 40 μL of maintenance medium in the source 384-well plate. […]

hiPSC-Hep = assay: valid cell count (Hoechst nuclei) in hiPSC-Hep, multiplexed viability readout; format: cell-based; conditions: Homo sapiens; for IC50: 10-point dose-response, multiplexed with lipid readout
Protocol: as §1, with “region. […]” for “region.”

CDK8 = system: CDK8; parameters: method as in AstraZeneca data repository; conditions: median log of IC50/EC50/Ki/Kd annotations, highest value; ref AstraZeneca data repository; cited from earlier work
CDK6 = system: CDK6; parameters: method as in AstraZeneca data repository; conditions: median log of IC50/EC50/Ki/Kd annotations, highest value; ref AstraZeneca data repository; cited from earlier work
CDK7 = system: CDK7; parameters: method as in AstraZeneca data repository; conditions: median log of IC50/EC50/Ki/Kd annotations, highest value; ref AstraZeneca data repository; cited from earlier work
CDK9 = system: CDK9; parameters: method as in AstraZeneca data repository; conditions: median log of IC50/EC50/Ki/Kd annotations, highest value; ref AstraZeneca data repository; cited from earlier work
CDK12 = system: CDK12; parameters: method as in AstraZeneca data repository; conditions: median log of IC50/EC50/Ki/Kd annotations, highest value; ref AstraZeneca data repository; cited from earlier work
CDK14 = system: CDK14; parameters: method as in AstraZeneca data repository; conditions: median log of IC50/EC50/Ki/Kd annotations, highest value; ref AstraZeneca data repository; cited from earlier work
CDK16 = system: CDK16; parameters: method as in AstraZeneca data repository; conditions: median log of IC50/EC50/Ki/Kd annotations, highest value; ref AstraZeneca data repository; cited from earlier work
CDK5R1 = system: CDK5R1; parameters: method as in AstraZeneca data repository; conditions: median log of IC50/EC50/Ki/Kd annotations, highest value; ref AstraZeneca data repository; cited from earlier work

Structure (SMILES) | IC50 [1] [µM] | EC50 [1] [µM] | IC50 (hiPSC-Hep) [µM] | pXC50 CDK8 (CDK8) | EC50 (hiPSC-Hep; Figure S5 dose-response, read-out: EC50, viable cell count (red line)) [µM] | pXC50 CDK6 (CDK6) | pXC50 CDK7 (CDK7) | pXC50 CDK9 (CDK9) | pXC50 CDK12 (CDK12) | pXC50 CDK14 (CDK14) | pXC50 CDK16 (CDK16) | pXC50 CDK5R1 (CDK5R1)
Cc1ncc(-c2nc(Nc3ccc(N4CCN(C(=O)CO)CC4)cc3)ncc2F)n1C(C)C [C3] | 0.32 | 0.32 | > 30 | 5.60 |  |  |  |  |  |  |  | 
CNC(=O)c1nn(C)c2c1C(C)(C)Cc1cnc(Nc3ccc(N4CCN(C)CC4)cc3)nc1-2 [C16, Milciclib] | 4.6 | 4.6 | 16.6 |  | 16.6 | 7.61 | 7.51 | 5.60 | 5.34 | 6.13 | 7.10 | 6.58
